{GalNAc3} = trishexylamino-C6 triantennary GalNAc conjugate; e = 2'-O-(2-methoxyethyl) (MOE); d = 2'-deoxy (DNA)
Columns and labels:
BSEP = system: T1, BSEP; test: BSEP substrate study in Sf9 membrane vesicles; assay type: in vitro ADME; conditions: 10 μM ASO, ATP vs AMP
T1 construct: purchased Life Technologies; host or cells: Sf9 cells (membrane vesicles)
Method: The test system included a 96-well flat bottom plate containing a suspension of vesicles and a 96-well glass fiber filtration plate. Transport experiments were initiated with the addition of Mg-ATP (for ATP-dependent BSEP uptake) or AMP (non-ATP-dependent uptake) to appropriate wells. Preparation of the flat-bottom plates included incubation with blocking buffer for 60 min at 37°C with orbital shaking at 120 rpm. After 60 min, the blocking buffer was completely removed and assay uptake buffer solutions were added. For BSEP inhibition studies, solutions contained 1 μM [^3H]-taurocholic acid as a substrate and either assay vehicle, test article (at 100 μM), or reference inhibitor (300 μM rifampicin). For BSEP substrate studies, solutions contained either 1 μM [^3H]-taurocholic acid or 10 μM test article. Vesicles were added to assay plates and incubated at 37°C with orbital shaking at 120 rpm for 15 min. To initiate the assay, either Mg-ATP or AMP was added to test wells at a final concentration of 5 mM. Plates were incubated at 37°C with orbital shaking at 120 rpm for 15 min. A glass fiber filtration plate was incubated with blocking buffer for 2 min. Vacuum was then applied to remove the blocking buffer, and ice-cold wash buffer was added to the filtration plate. Vesicular transport was quenched by adding ice-cold wash buffer. Assay samples were then mixed as diluted in wash buffer and 175 μL was transferred into the 96-well glass fiber filtration plate to separate vesicles. […] These samples were counted using a 1450 Microbeta (Perkin-Elmer). […] The test article was quantitated by LC-MS. […]
Signal to noise for the BSEP probe substrate was calculated by dividing the uptake of the probe substrate in BSEP-expressing vesicles in the presence of ATP by the uptake of the BSEP substrate in the vesicles in the presence of AMP. Percent inhibition in the presence of the test article or the reference inhibitors was calculated as: %inhibition=100−(100×(ATP−dependent,transportor−mediatedaccumulation)withinhibitor/(ATP−dependent,transportor−mediatedaccumulation)withoutinhibitor).

P-gp = system: T2, P-gp; test: P-gp substrate study, bi-directional flux in MDCK-MDR1 cells; assay type: in vitro ADME; conditions: 10 μM ASO, Papp B to A / Papp A to B
T2 construct: host or cells: MDCK-MDR1 (MDCK cells stably transfected with MDR1)
Method: MDCK-MDR1 cells and MDCK-II cells transfected with BCRP were washed with HBSS at 37°C. Wells of the culture plate served as the apical compartment, and 150 μL of HBSS solutions was added to the apical wells. These solutions also contain one of the following: vehicle (for probe substrate controls), 100 μM test article (for test article inhibition experiments), 1 μM Ko143 (for BCRP inhibition), or 3 μM elacridar (for P-gp inhibition). A 96-well receiver tray was prepared with each well containing 300 μL of buffer solution corresponding to the apical wells. Receiver tray wells served as the basal compartment. The plate and receiver tray were assembled and incubated at 37°C for 30 min. The solution was then aspirated from the apical compartment and the 96-well plate was removed from the receiver tray. Donor and receiver wells for inhibition or donor (containing substrate) and receiver (without substrate) wells for substrate studies were then prepared for bi-directional flux studies. For the probe substrate transport assays, HBSS in each donor well contained one of the following probe substrates: BCRP, 2 μM [^3H]-prazosin; or P-gp, 100 nM [^3H]-quinidine. For positive control inhibition assays, HBSS contained the reference inhibitor in both donor and receiver wells, with the probe substrate only in donor wells. […] These samples were counted on a 1450 Microbeta (PerkinElmer). For samples containing test articles, samples were quantitated using LC-MS.
For BCRP and P-gp, apparent permeability Papp was determined using the equation Papp=(Vr/(A×C0))×(Cr/Δt) whereby Papp is the apparent permeability, Vr is the volume of the receiver compartment (mL), C0 is the initial concentration of the donor solution, A is the monolayer area (cm^2), Cr is the receiver well concentration at the end of the incubation, and Δt represents the change in time from t = 0 (s). The efflux ratio (ER) was determined by dividing Papp in the B→A direction by that in the A→B direction as: ER=Papp(B→A)/Papp(A→B).

Substance | BSEP-mediated uptake relative to corresponding controls (BSEP) [fold] | Efflux ratio, P-gp (P-gp)
ISIS 681257: 20-mer 2′-MOE gapmer PS/PO mixed backbone ASO conjugated to 5′-trishexylamino GalNAc3, targets Lp(a), sequence TGCTCCGTTGGTGCTTGTTC (5' {GalNAc3}, sugars by position and backbone not given here; 2'-MOE gapmer with mixed PS/PO backbone) | < 2 | ≤ 2.0
ISIS 420915: 20-mer 2′-MOE gapmer PS backbone antisense inhibitor of transthyretin, sequence TCTTGGTTACATGAAATCCC (all phosphorothioate, sugars by position and methylation of C not given here; 2'-MOE gapmer) | < 2 | ≤ 2.0
ISIS 304801: 20-mer (5-10-5) 2′-MOE gapmer PS backbone antisense inhibitor of apoC-III, sequence AGCTTCTTGTCCAGCTTTAT (sugars from the 5' end e5 d10 e5, all phosphorothioate, methylation of C not given here) | < 2 | ≤ 2.0

Source: publication PMC5602538, “Assessment of the Drug Interaction Potential of Unconjugated and GalNAc3-Conjugated 2′-MOE-ASOs” (Molecular Therapy. Nucleic Acids, 2017)
